Source: patent publication US20050026951A1, “Methods of therapeutic treatment using retinoids with reduced drug interaction” (Allergan, Inc., priority 2003, published 2005)

Legend:
RXRs = assay: RXR activation; format: cell-based
Text: (§1) The selection of a retinoid component useful in accordance with the present invention can be accomplished using straightforward, conventional testing and/or assays, such as the transactivation assays set forth in Evans et al., U.S. Pat. No. 5,217,867; 5,262,300; 5,310,662; and 5,906,920, each of which is hereby incorporated in its entirety herein by reference, which are well known in the art. Such testing and/or assays can identify suitable useful retinoid components without undue experimentation.
In other aspects of the present invention, one or more compounds, for example, from a screening library of compounds, which are known to have or have been tested, using conventional and well known techniques, and found to have useful RAR activity, can be individually or collectively tested for RXR activity using conventional and well known testing procedures. See, for example, the above-noted Evans et al. patents, in particular U.S. Pat. No. 5,906,920.

RARs = assay: RAR activation and subtype selectivity; format: cell-based
Text: as §1
Other well known and straightforward test methods and/or assays may be employed to determine the selectivity or specificity of an RAR active compound to RAR-alpha, RAR-beta and RAR-gamma. For example, using conventional and well known assays, for example, such as set forth in Klein et al. U.S. Pat. No. 5,776,699, the disclosure of which is incorporated in its entirety herein by reference, and/or the above-noted Evans et al. patents, the selectively or specificity of a compound to RAR-alpha, RAR-beta and RAR-gamma can be determined. Based on the results of such assays, one can determine whether or not a compound is useful in accordance with one or more aspects of the present invention.

[1] = oral; cited from earlier work
[2] = relative to tamoxifen in the absence of bexarotene; cited from earlier work
sebaceous glands = details: severe acne; cited from earlier work
[3] = tested on: patients having nodulocystic acne; assay: Two placebo-controlled dose-ranging safety studies of oral tazarotene in nodulocystic acne; format: in vivo, human; details: for Emotional lability, patients: all cases mild
Description: Two placebo-controlled dose-ranging studies are conducted to evaluate the safety of oral tazarotene in patients having nodulocystic acne. In the first study, patients receive orally administered tazarotene at daily doses of 0.4 mg to 2.8 mg in 96 (71+25) patients (12 weeks treatment plus 12 weeks post-treatment). In the second study, daily doses of 0.75 mg to 6 mg tazarotene are administered to 181 patients (24 weeks treatment plus 12 weeks post-treatment).

[4] = tested on: patients with severe nodulocystic acne; assay: Multicenter double-blind placebo-controlled study of oral tazarotene in severe nodulocystic acne; format: in vivo, human
Text: A multicenter, double-blind, randomized, placebo-controlled parallel-group study is undertaken to determine the efficacy of orally administered tazarotene in treating severe nodulocystic acne.
In addition, washout periods for other medications for this study are: 1 week for vitamin A supplements >5000 IU; 2 weeks for topical anti-acne medications (e.g., retinoids, azelaic acid, benzoyl peroxide); 2 weeks for topical or systemic antibiotic therapy that may alter the course of acne; and 6 months for systemic retinoids.
Patients are randomized to receive placebo or oral tazarotene (0.75, 1.5, 3, or 6 mg), in a 1:1:1:1:1 ratio once daily for 24 weeks. After this, the patients are followed without treatment for an additional 12 weeks. Patients discontinuing from the treatment period due to adverse effects or lack of efficacy are eligible for entry into the post-treatment phase.
In the study, overall acne severity is rated as: none (no inflammatory acne lesions); mild (few to several papules or pustules, no nodulocystic lesions); moderate (several to many papules or pustules, few to several nodulocystic lesions); and severe (numerous or extensive papules or pustules, many, for example, at least about 5 or at least about 10, nodulocystic lesions).
Treatment success is defined as at least moderate (about 50%) improvement on the following 7-point global response scale: • 0=completely cleared • 1=almost cleared (about 90% improvement) • 2=marked response (about 75% improvement) • 3=moderate response (about 50% improvement) • 4=slight response (about 25% improvement) • 5=condition unchanged • 6=condition worsened
In this study, facial nodulocystic lesion count includes lesions greater than 5 mm in size. Facial papular/pustular lesion count includes lesions less than or equal to 5 mm in size. Facial non-inflammatory lesion count includes open and closed comedones.
Sebum output is assessed every 4 weeks at selected centers using the Sebutape® patches, sold by Cuderm Corporation. Urinalysis, chemistry, and hematology values are monitored. Bone formation and resorption assessments (serum bone alkaline phosphatase and serum amino terminal telopeptides, respectively) at selected centers are monitored.
Bone mineral density of spine and proximal femur at selected centers is monitored. Ligament calcification or osteophyte formation (lateral X-ray of the cervical and thoracic spine, and ankle calcaneous) is monitored. Epiphyseal growth plate closure (internal oblique X-ray of the ankle in patients less than or equal to 21 years old) is monitored.

[5] = tested on: patients with moderate to very severe plaque psoriasis; assay: Open-label extension study of oral tazarotene in plaque psoriasis non-responders; format: in vivo, human; details: 4.5 mg once daily, extension treatment period, across both groups
Description: Two multicenter, double-blind, placebo-controlled studies ware conducted to evaluate the efficacy and safety of oral tazarotene (4.5 mg once daily) in patients with moderate to very severe plaque psoriasis. […] Efficacy evaluations include overall lesional assessment (OLA), percent body surface area involvement, global response to treatment, plaque elevation, scaling, and erythema. OLA is graded on a 6-point scale (0=none, 1=minimal, 2=mild, 3=moderate, 4=severe, 5=very severe).

patients = assay: Two 24-week placebo-controlled safety studies of oral tazarotene plus 16- to 24-week dose-response evaluations; format: in vivo, human; details: 4.5 mg orally once daily
Description: Two multicenter, double-blind, randomized, placebo-controlled 24-week studies of identical design are conducted to evaluate the safety of oral tazarotene. In addition, 16- to 24-week dose-response evaluations are performed.
In the two safety trials, the incidence of adverse side effects with a 4.5 mg dose administered orally once daily is compared to the incidence of the same side effects with a placebo. […] The majority of these were mild in severity and typical of adverse effects associated with oral retinoids.

[6] = Food effect on pharmacokinetics of tazarotenic acid after 6.3 mg oral tazarotene (high-fat breakfast vs 8-10 hour fast); format: in vivo, human; details: fed (high-fat meal) vs fasted
Description: For the purposes of this application, the bioavailability of a drug may be based on the human pharmokinetic parameters of maximum blood concentration (Cmax) and Area under the blood concentration-time curve (AUC).
The LC-MS/MS test for simultaneous detection of tazarotene and tazarotenic acid may be run as follows. One ml of plasma (EDTA-treated) is diluted with 1.0 ml of water. Diluted plasma is extracted using solid phase extraction (SPE) on a C18 cartridge. The eluate is evaporated, reconstituted in a water/methanol-based mobile phase, and injected onto a 4.6×50 mm, 3 μm pore size C-8 reverse phase high pressure liquid chromatography (HPLC) column (Agilent, Wilmington, Del.). Compounds are gradient-eluted at 1.2 mL/min and detected using an API 3000 triple quadrupole mass spectrometer with an Atmospheric Pressure Chemical Ionization (APCI) source (PE-Sciex, Concord, Ontario, Canada). […] The specific precursor-product ion pair monitored are m/z 352→324 for tazarotene, m/z […] for the tazarotene internal standard, m/z 324→294 for tazarotenic acid, and m/z 331→298 for the tazarotenic acid internal standard. The lower limit of quantitation at assay range tested is 0.1 ng/mL, with a coefficient of variation and deviation from nominal concentration of <15%.

Q: Which “Activation of the RXRs” value (RXRs) does the source give for `CC1(C)CC[S+]([O-])c2ccc(C#Cc3ccc(C(=O)O)cn3)cc21` (stereo not drawn) [AGN 190844] here?
A: The value was “does not activate”.

Q: What about the “Activation of the RARs” value (RARs) of the same compound?
A: The value was “does not activate”.

Q: For `COc1cc(C)c(/C=C/C(C)=C/C=C/C(C)=C/C(=O)O)c(C)c1C` [acitretin], which “Bioavailability in the presence of food” value [1] is on record?
A: The value was “increased in the presence of food”.

Q: Which “Bioavailability in the presence of food” value [1] does the source give for `C=C(c1ccc(C(=O)O)cc1)c1cc2c(cc1C)C(C)(C)CCC2(C)C` [bexarotene] here?
A: The value was “increased in the presence of food”.

Q: And the “Plasma concentration of coadministered tamoxifen” value [2]?
A: Its value is “reduced plasma concentration of tamoxifen”.

Q: Which “Decrease in sebum secretion rate” value (sebaceous glands) does the source give for `CC1=C(/C=C/C(C)=C/C=C/C(C)=C\C(=O)O)C(C)(C)CCC1` [isotretinoin] here?
A: Its value is “about 90%”.

Q: What about the “Bioavailability in the presence of food” value [1] of the same compound?
A: Its value is “increased in the presence of food”.

Q: For `CCOC(=O)c1ccc(C#Cc2ccc3c(c2)C(C)(C)CCS3)nc1` [tazarotene], which Severe dry skin ([3]; 3 mg and 6 mg groups) is on record?
A: Its Severe dry skin is “No patient”.

Q: And the “Emotional lability, patients” value ([3]; 3 mg group (1 patient))?
A: The value was 3%.

Q: And the “Depression, patients” value ([3]; 3 mg group (3 patients: 2 mild, 1 severe))?
A: Its value is 8%.

Q: What about the “Emotional lability, patients” value ([3]; 6 mg group (5 patients)) of the same compound?
A: The value was 14%.

Q: And the “Changes in urinalysis, chemistry, or hematology measures (liver function tests, triglycerides, total cholesterol, HDL cholesterol)” value ([3]; 0.4 to 6 mg daily)?
A: Its value is “no consistent dose-related clinically significant changes”.

Q: And the “Ligament calcification, osteophyte formation, changes in serum bone alkaline phosphatase, serum amino terminal telopeptides, bone density” value ([3]; 0.4 to 6 mg daily)?
A: Its value is “not associated with any clinically significant”.

Q: And the “Patients withdrawing from either study due to adverse events” value ([3]; all groups of both studies incl. placebo (7/277))?
A: The value was 2.5%.

Q: And the “Patients withdrawing due to adverse events, treatment period” value (from here on “Patients withdrawing due”) ([4]; 0.75 mg group (2/35))?
A: The value was 6%.

Q: And the “Patients withdrawing due” value ([4]; 1.5 mg group (0/37))?
A: Its value is 0%.

Q: And the “Patients withdrawing due” value ([4]; 3 mg group (2/37))?
A: The value was 5%.

Q: And the “Patients withdrawing due” value ([4]; 6 mg group (1/36))?
A: Its value is 3%.

Q: What about the “Reduction of overall acne severity vs placebo” value ([4]; 6 mg, from week 16 until end of post-treatment phase (p ≦0.01)) of the same compound?
A: The value was “significantly more than placebo”.

Q: What about the “Abnormalities in liver function test results or elevated triglycerides, total cholesterol, or HDL cholesterol” value ([4]; 0.75 to 6 mg once daily, 24 weeks) of the same compound?
A: The value was “not generally associated”.

Q: What about the “Sebum secretion (Sebutape method) relative to placebo” value ([4]; 0.75 to 6 mg once daily, assessed every 4 weeks) of the same compound?
A: The value was “does not substantially reduce sebum secretion”.

Q: And the Incidence of arthralgia [5]?
A: The Incidence of arthralgia was 20%.

Q: What about the Incidence of asthenia [5] of the same compound?
A: Its Incidence of asthenia is 6%.

Q: And the “Incidence of back pain” value [5]?
A: The value was 11%.

Q: And the Incidence of cheilitis [5]?
A: The Incidence of cheilitis was 70%.

Q: And the “Incidence of dry skin” value [5]?
A: The value was 25%.

Q: And the Incidence of headache [5]?
A: Its Incidence of headache is 11%.

Q: What about the Incidence of hypertriglyceridemia [5] of the same compound?
A: Its Incidence of hypertriglyceridemia is 6%.

Q: What about the Incidence of infection [5] of the same compound?
A: Its Incidence of infection is 10%.

Q: What about the Incidence of myalgia [5] of the same compound?
A: Its Incidence of myalgia is 15%.

Q: What about the “Incidence of altered hormone levels (elevated TSH and T4, decreased T4, abnormal thyroid function test)” value (patients) of the same compound?
A: The value was 0%.

Q: And the “Incidence of hypertriglyceridemia, hypercholesterolemia, abnormal liver function tests, increased ALT, increased AST, desquamation, eye dryness, alopecia” value (patients; vs placebo)?
A: Its value is “essentially the same incidence with oral tazarotene as with placebo”.

Q: Which results are given for `CC1(C)CCSc2ccc(C#Cc3ccc(C(=O)O)cn3)cc21` [tazarotenic acid]?
A: Cmax average ratio (test/reference) of tazarotenic acid ([6]; Day 0): 1.00; Cmax average ratio (test/reference) of tazarotenic acid ([6]; Day 9): 0.829; Activation of the RXRs (RXRs): does not activate; RAR subtype selectivity (RARs): selectivity for RAR-β and RAR-γ
